Target: T1, cynomolgus BK1-receptor (Macaca fascicularis, UniProt Q3BCU0)
T1 construct: expressed in transfected cells; host or cells: CHO cells (homogenate)
T1 sequence (Q3BCU0 1-352): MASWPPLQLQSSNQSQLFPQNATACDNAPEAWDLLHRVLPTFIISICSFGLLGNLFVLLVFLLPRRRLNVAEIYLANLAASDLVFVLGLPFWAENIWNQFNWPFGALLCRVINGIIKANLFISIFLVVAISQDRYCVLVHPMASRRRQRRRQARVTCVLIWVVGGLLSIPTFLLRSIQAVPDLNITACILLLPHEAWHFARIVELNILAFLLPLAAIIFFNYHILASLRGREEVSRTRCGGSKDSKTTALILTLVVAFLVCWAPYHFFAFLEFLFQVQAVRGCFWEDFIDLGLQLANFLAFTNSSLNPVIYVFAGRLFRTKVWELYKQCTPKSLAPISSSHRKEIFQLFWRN
Experiment: cynoBK1-receptor binding assay
Details: CHO cells expressing cynomolgus BK1-receptor, radioligand kallidine (DesArg10,Leu9); for inhibition at 10 µM: at 10 μgmol/L
Procedure, shortened: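 Radioligand competition on homogenates of CHO cells expressing cynomolgus BK1 receptor (50 to 250 μg protein/assay), incubated 60-180 minutes at ambient temperature with 0.5 to 5.0 nM [3H]kallidine (DesArg10,Leu9) plus increasing test compound. Filtration binding; non-specific defined with 1.0 μM kallidine (DesArg10); Ki from non-linear curve fitting.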

Row | SMILES | Ki | inhibition at 10 µM
1 | O=C(N[C@@]1(C(=O)NCc2ccc(Nc3ccccc3C(F)(F)F)cc2)CCOC1)c1cccc(O)c1 [(97)] | 132 nM | –
2 | O=C(NC1(C(=O)NCc2ncc(Nc3c(F)cccc3C(F)(F)F)cc2F)CC1)c1ccnc(O)c1 [(130)] | 101 nM | 101%
3 | O=C(NC1(C(=O)NCc2ccc(Nc3ccccc3C(F)(F)F)cn2)CCC(O)C1)c1cncnc1 (stereo not shown) [(192)] | – | 95%
4 | CN(C)CC(=O)NC1(C(=O)NCc2ccc(Nc3ccccc3C(F)(F)F)cc2)CC1 [(12)] | – | 78%
5 | Nc1cncc(C(=O)NC2(C(=O)NCc3ccc(Nc4ccc(Br)cc4C(F)(F)F)cn3)CC2)c1 [(178)] | 11 nM | 107%
6 | CNc1ncc(C(=O)N[C@@]2(C(=O)NCc3ncc(Nc4ccc(F)cc4C(F)(F)F)cc3Cl)CCOC2)cn1 [(224)] | 6.3 nM | –
7 | COc1ccc(C(=O)N[C@@]2(C(=O)NCc3ccc(Nc4ccccc4C(F)(F)F)cc3)CCOC2)o1 [(68)] | – | 78%
8 | O=C(N[C@@]1(C(=O)NCc2ccc(Nc3ccc(Cl)cc3C(F)(F)F)cc2)CCOC1)c1cncnc1 [(332)] | 41 nM | –
9 | N#CCC(=O)NC1(C(=O)NCc2ccc(Nc3ccc(Cl)cc3C(F)(F)F)cn2)CC1 [(364)] | 77 nM | –
10 | CC(=O)Nc1ncc(C(=O)NC2(C(=O)NCc3ccc(Nc4ccc(F)cc4C(F)(F)F)cn3)CC2)s1 [(257)] | 17 nM | –
11 | O=C(NC1(C(=O)NCc2ccc(Nc3ccccc3C(F)(F)F)cn2)CC[S+]([O-])C1)c1cncnc1 (stereo not shown) [(194)] | – | 95%
12 | O=C(NC1(C(=O)NCc2ccc(Nc3ccccc3C(F)(F)F)cc2)CC1)c1ccccn1 [(21)] | – | 68%
13 | O=C(NC1(C(=O)NCc2ccc(Nc3ccc(Cl)cc3C(F)(F)F)cn2)CC1)c1cccc(O)n1 [(211)] | 25 nM | –
14 | N#Cc1c(F)cccc1Nc1ccc(CNC(=O)C2(NC(=O)c3cncnc3)CC2)cc1 [(115)] | > 500 nM | 99%
15 | Cc1ncc(C(=O)NC2(C(=O)NCc3ncc(Nc4ccccc4C(F)(F)F)cc3Cl)CC2)cn1 [(301)] | 1.1 nM | –
16 | Cc1cncc(C(=O)NC2(C(=O)NCc3ncc(Nc4c(F)cccc4C(F)(F)F)cc3F)CC2)c1 [(131)] | 33 nM | 105%
17 | Cc1ncc(C(=O)N[C@@]2(C(=O)NCc3ncc(Nc4ccc(F)cc4C(F)(F)F)cc3F)CCOC2)cn1 [(267)] | 5.5 nM | –
18 | N#Cc1cccc(F)c1Nc1ccc(CNC(=O)C2(NC(=O)c3cncnc3)CC2)cc1 [(116)] | > 500 nM | 83%
19 | Cc1ncc(C(=O)NC2(C(=O)NCc3ccc(Nc4ccc(F)cc4C(F)(F)F)cn3)CC2)s1 [(303)] | 82 nM | –
20 | Nc1ccc(C(=O)N[C@@]2(C(=O)NCc3ccc(Nc4ccc(F)cc4C(F)(F)F)cc3)CCOC2)cn1 [(309)] | 184 nM | –
21 | CCOc1ccc(Nc2ccc(CNC(=O)C3(NC(=O)c4cncnc4)CC3)cc2)c(C(F)(F)F)c1 [(117)] | 2.8 nM | 111%
22 | COc1cncc(C(=O)NC2(C(=O)NCc3ccc(Nc4ccc(Cl)cc4C(F)(F)F)cn3)CC2)c1 [(313)] | 95 nM | –
23 | O=C(NC1(C(=O)NCc2ncc(Nc3c(F)cccc3C(F)(F)F)cc2F)CC1)c1cncs1 [(135)] | 15 nM | 106%

Row | SMILES | Ki | inhibition at 10 µM
24 | Nc1cncc(C(=O)NC2(C(=O)NCc3ncc(Nc4c(F)cccc4C(F)(F)F)cc3F)CC2)c1 [(125)] | 12 nM | 108%
25 | CC(C#N)C(=O)NC1(C(=O)NCc2ccc(Nc3ccc(Cl)cc3C(F)(F)F)cn2)CC1 (stereo not shown) [(368)] | 42 nM | –
26 | Nc1cncc(C(=O)N[C@@]2(C(=O)NCc3ccc(Nc4ccc(Br)cc4C(F)(F)F)cn3)CCOC2)c1 [(222)] | 68 nM | –
27 | O=C(N[C@@]1(C(=O)NCc2ccc(Nc3ccc(Cl)cc3C(F)(F)F)cn2)CCOC1)c1cncnc1 [(228)] | 78 nM | –
28 | Cc1ncc(C(=O)NC2(C(=O)NCc3ccc(Nc4ccc(F)cc4C(F)(F)F)cn3)CC2)cn1 [(232)] | 5.6 nM | –
29 | CN(C)CCCC(=O)NC1(C(=O)NCc2ccc(Nc3ccccc3C(F)(F)F)cc2)CC1 [(6)] | – | 59%
30 | CCCCC(=O)NC1(C(=O)NCc2ccc(Nc3ccccc3C(F)(F)F)cc2)CC1 [(16)] | – | 91%
31 | O=C(N[C@@]1(C(=O)NCc2ncc(Nc3ccc(F)cc3C(F)(F)F)cc2Cl)CCOC1)c1cnc2[nH]cnc2c1 [(220)] | 15 nM | –
32 | Nc1cncc(C(=O)NC2(C(=O)NCc3ccc(Nc4ccc(Cl)cc4C(F)(F)F)cn3)CC2)c1 [(217)] | 12 nM | –
33 | Cc1ccc(C(=O)NC2(C(=O)NCc3ccc(Nc4ccc(Cl)cc4C(F)(F)F)cn3)CC2)cn1 [(312)] | 57 nM | –
34 | Cc1cc(Br)ccc1Nc1ccc(CNC(=O)C2(NC(=O)c3cncnc3)CC2)nc1 [(53)] | 197 nM | 101%
35 | N#Cc1cc(F)ccc1Nc1ccc(CNC(=O)C2(NC(=O)c3cncnc3)CC2)cc1 [(36)] | 21 nM | 113%
36 | O=C(CC(F)(F)F)NC1(C(=O)NCc2ccc(Nc3ccc(Cl)cc3C(F)(F)F)cn2)CC1 [(363)] | 45 nM | –
37 | CNc1ccc(C(=O)NC2(C(=O)NCc3ccc(Nc4ccc(Br)cc4C(F)(F)F)cn3)CC2)cn1 [(343)] | 7.2 nM | –
38 | Cc1ncc(C(=O)N[C@@]2(C(=O)NCc3ccc(Nc4ccccc4C(F)(F)F)cc3)CCOC2)c(C)n1 [(80)] | – | 88%
39 | O=C(NC1(C(=O)NCc2ccc(Nc3c(F)cccc3Cl)cn2)CC1)c1cncnc1 [(200)] | – | 92%
40 | CCNc1ccc(C(=O)NC2(C(=O)NCc3ccc(Nc4ccc(Br)cc4C(F)(F)F)cn3)CC2)cn1 [(334)] | 20 nM | –
41 | CC(C)c1ccc(Nc2ccc(CNC(=O)C3(NC(=O)c4cncnc4)CC3)nc2)c(C(F)(F)F)c1 [(204)] | 402 nM | –
42 | COc1ccc(Nc2ccc(CNC(=O)C3(NC(=O)c4cncnc4)CC3)nc2)c(C(F)(F)F)c1 [(50)] | 0.7 nM | 115%
43 | N#CC1(C(=O)NC2(C(=O)NCc3ccc(Nc4ccc(Cl)cc4C(F)(F)F)cn3)CC2)CC1 [(367)] | 508 nM | –
44 | O=C(NC1(C(=O)NCc2ncc(Nc3ccc(Cl)cc3C(F)(F)F)cc2F)CC1)c1cncnc1 [(165)] | – | 101%
45 | Nc1cc(C(=O)NC2(C(=O)NCc3ccc(Nc4ccc(F)cc4C(F)(F)F)cn3)CC2)[nH]n1 [(185)] | – | 87%
46 | Cc1cc(Nc2ccc(F)cc2C(F)(F)F)cnc1CNC(=O)[C@]1(NC(=O)c2cncc(N)c2)CCOC1 [(342)] | 50 nM | –

Row | SMILES | Ki | inhibition at 10 µM
47 | O=C(N[C@@]1(C(=O)NCc2ncc(Nc3c(F)cccc3C(F)(F)F)cc2F)CCOC1)c1cncnc1 [(158)] | 115 nM | 101%
48 | COc1ncc(C(=O)N[C@@]2(C(=O)NCc3ccc(Nc4ccccc4C(F)(F)F)cc3)CCOC2)cn1 [(81)] | – | 113%
49 | O=C(NC1(C(=O)NCc2ccc(Nc3ccc(F)cc3C(F)(F)F)cn2)CC1)c1cnc2cc[nH]c2c1 [(255)] | 15 nM | –
50 | Cc1ncc(C(=O)NC2(C(=O)NCc3ccc(Nc4ccc(Br)cc4C(F)(F)F)cn3)CC2)cn1 [(139)] | 2.8 nM | 107%
51 | Cc1cc(Nc2ccccc2C(F)(F)F)cnc1CNC(=O)C1(NC(=O)c2cncc(N)c2)CC1 [(375)] | 48 nM | –
52 | O=C(NC1(C(=O)NCc2ccc(Nc3ccc(Cl)cc3C(F)(F)F)cn2)CC1)c1cncc(F)c1 [(351)] | 24 nM | –
53 | Nc1cncc(C(=O)N[C@@]2(C(=O)NCc3ccc(Nc4c(F)cccc4C(F)(F)F)cc3F)CCOC2)c1 [(290)] | 46 nM | –
54 | Cc1ncc(C(=O)NC2(C(=O)NCc3ncc(Nc4ccc(Cl)cc4C(F)(F)F)cc3C)CC2)cn1 [(360)] | 2.5 nM | –
55 | O=C(NC1(C(=O)NCc2ccc(Nc3ccccc3C(F)(F)F)cc2)CC1)c1cnc(O)nc1O [(9)] | – | 78%
56 | O=C(NC1(C(=O)NCc2ccc(Nc3ccc(Br)cc3Cl)cn2)CC1)c1cncnc1 [(126)] | 46 nM | 103%
57 | O=C(N[C@@]1(C(=O)NCc2ccc(Nc3ccccc3C(F)(F)F)cc2)CCOC1)c1cccc(O)n1 [(70)] | – | 107%
58 | O=C(N[C@@]1(C(=O)NCc2ccc(Nc3ccccc3C(F)(F)F)cc2)CCOC1)C1CCOC1 (stereo partly shown) [(60)] | – | 84%
59 | O=C(NC1(C(=O)NCc2ccc(Nc3ccc(F)cc3C(F)(F)F)cn2)CC1)c1cnc2[nH]cnc2c1 [(143)] | 12 nM | 106%
60 | Cc1ncc(C(=O)N[C@@]2(C(=O)NCc3ccc(Nc4ccccc4C(F)(F)F)cc3F)CCOC2)cn1 [(279)] | 5.5 nM | –
61 | COc1cc(C(=O)NC2(C(=O)NCc3ccc(Nc4ccc(Cl)cc4C(F)(F)F)cn3)CC2)on1 [(356)] | 22 nM | –
62 | O=C(NC1(C(=O)NCc2ccc(Nc3ccc(Cl)cc3C(F)(F)F)cn2)CC1)c1cncc(O)c1 [(205)] | 17 nM | –
63 | CC(NC(=O)C1(NC(=O)c2cncnc2)CC1)c1ccc(Nc2ccc(F)cc2C(F)(F)F)cn1 (stereo not shown) [(45)] | 2 nM | 104%
64 | O=C(NC1(C(=O)NCc2ccc(Nc3ccc(F)cc3C(F)(F)F)cc2)CC1)c1cncs1 [(29)] | 6.2 nM | 113%
65 | O=C1CCC(C(=O)NC2(C(=O)NCc3ccc(Nc4ccccc4C(F)(F)F)cc3)CC2)N1 (stereo not shown) [(5)] | – | 88%
66 | O=C(N[C@@]1(C(=O)NCc2ccc(Nc3cc(F)ccc3C(F)(F)F)cn2)CCOC1)c1cncnc1 [(48)] | – | 71%
67 | O=C(NC1(C(=O)NCc2ccc(Nc3ccc(F)cc3C(F)(F)F)cn2)CC1)c1cncnc1 [(41)] | 2.6 nM | 108%
